# In patent US10513529B2, “1,2,4-triazolo-[3,4-b]-1,3,4-thiadiazole derivatives” (GALENICA S.A., priority 2016, dated 2019):
# Assays:
# Assay type in all cases: cell-based
# [1] = test system: SKOV-3 human ovarian cancer cell line; assay: MTT cytostatic-cytotoxic activity, SKOV-3; settings: for GI50 / IC50: Homo sapiens, SK-OV-3, SKOV-3, 48 h treatment; for IC50: kills 50% of the cells; for TGI: SKOV-3, 48 h treatment
# Summary of the method: (§1)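 SKOV-3 and OVCAR-3 cells seeded at 1×10^4 cells/ml, treated after 24 h with 1-100 μmol/l compound for 48 h in triplicate. Viability by MTT (3 h, 37 °C), absorbance at 540 nm; GI50, TGI and IC50 computed from treated versus 24 h and 72 h control readings.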
# [2] = test system: T-47D human breast cancer cell line; assay: MTT cytostatic-cytotoxic activity, T-47D; settings: 48 h treatment; for GI50 / IC50: Homo sapiens, T47D; for GI50: 48 h; for IC50: kills 50% of the cells
# [3] = test system: UWB1.289 + BRCA1 human ovarian cancer cell line; assay: MTT cytostatic-cytotoxic activity, UWB1.289+BRCA1; settings: for GI50 / IC50: Homo sapiens, UWB1289, UWB1.289+BRCA1, 48 h treatment; for IC50: kills 50% of the cells; for TGI: UWB1.289+BRCA1, 48 h treatment
# Summary of the method: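 BRCA1-restored UWB1.289 ovarian cells in McCoy's 5a/RPMI-MEGM with 10% FBS, seeded 24 hours before 48 h treatment with 1-100 μmol/l compound, triplicate wells. Viability by MTT, 3 h, absorbance 540 nm. GI50, TGI and IC50 computed from treated versus 24 h and 72 h control readings.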
# [4] = test system: A-549 human lung carcinoma cell line; assay: MTT cytostatic-cytotoxic activity, A-549; settings: for TGI: A-549, 48 h treatment; for GI50 / IC50: Homo sapiens, A549, A-549, 48 h treatment; for IC50: kills 50% of the cells
# [5] = test system: MCF-7 human breast cancer cell line; assay: MTT cytostatic-cytotoxic activity, MCF-7; settings: for GI50 / IC50: Homo sapiens; for GI50: MCF7, 48 h; for GI50 / TGI: MCF-7, 48 h treatment; for IC50: MCF7, MCF-7, 48 h treatment, kills 50% of the cells
# [6] = test system: OVCAR-3 human ovarian cancer cell line; assay: MTT cytostatic-cytotoxic activity, OVCAR-3; settings: OVCAR-3, 48 h treatment; for GI50 / IC50: Homo sapiens; for IC50: kills 50% of the cells
# Summary of the method: as §1
# [7] = test system: UWB1.289 human ovarian cancer cell line (mutant BRCA1); assay: MTT cytostatic-cytotoxic activity, UWB1.289; settings: for GI50 / IC50: Homo sapiens; for GI50: UWB1289, 48 h; for GI50 / TGI: UWB1.289, 48 h treatment; for IC50: UWB1289, UWB1.289, 48 h treatment, kills 50% of the cells
# Summary of the method: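 UWB1.289 cells (BRCA1-null, p53-mutant) were seeded at 1×10^4 cells/ml per well and treated after 24 h with 1-100 μmol/l compound for 48 h, in triplicate. Viability was read by MTT (3 h, DMSO solubilisation, 540 nm). GI50, TGI and IC50 came from treated versus 24 h and 72 h control absorbances.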
# [8] = test system: PC-3 human hormone-resistant prostate cancer cell line; assay: MTT cytostatic-cytotoxic activity, PC-3; settings: PC-3, 48 h treatment; for GI50 / IC50: Homo sapiens; for IC50: kills 50% of the cells
Structure (SMILES),GI50 [1] [µM],IC50 [1] [µM],TGI [1] [µM],TGI [2] [µM],GI50 [2] [µM],IC50 [2] [µM],GI50 [3] [µM],IC50 [3] [µM],TGI [3] [µM],TGI [4] [µM],GI50 [4] [µM],IC50 [4] [µM],GI50 [5] [µM],IC50 [5] [µM],TGI [5] [µM],GI50 [6] [µM],IC50 [6] [µM],TGI [6] [µM],GI50 [7] [µM],IC50 [7] [µM],other results
"COc1cc(Cc2nnc3sc(-c4ccc(Cl)cc4)nn23)c(S(=O)(=O)N(C)C)cc1OC [TS63, 3-[2-(N,N-dimethylsulfamoyl)-4,5-dimethoxybenzyl]-6-(4-chlorophenyl)-1,2,4-triazolo[3,4-b]-1,3,4-thiazole]",8,> 100,38,55,27,> 100,8,> 100,64,36,14,92,22,> 100,50,3,> 100,32,30,> 100,TGI [7]: 50 µM; GI50 [8]: 20 µM; IC50 [8]: > 100 µM; TGI [8]: 45 µM
"COc1cc(Cc2nnc3sc(-c4ccc(N)cc4)nn23)c(S(=O)(=O)N(C)C)cc1OC [TS71, 3-[2-(N,N-dimethylsulfamoyl)-4,5-dimethoxybenzyl]-6-(4-aminophenyl)-1,2,4-triazolo[3,4-b]-1,3,4-thiazole]",> 100,> 100,>100,>100,> 100,> 100,90,> 100,>100,>100,> 100,> 100,> 100,> 100,>100,97,> 100,>100,> 100,> 100,TGI [7]: >100 µM; GI50 [8]: > 100 µM; IC50 [8]: > 100 µM; TGI [8]: >100 µM
"COc1cc(Cc2nnc3sc(-c4ccccc4)nn23)c(S(=O)(=O)N(C)C)cc1OC [TS167, 3-[2-(N,N-dimethylsulfamoyI)-4,5-dimethoxy-benzyl]-6-phenyl-1,2,4-triazolo[3,4-b]-1,3,4-thiazole]",80,> 100,>100,>100,52,> 100,76,> 100,>100,>100,74,> 100,65,> 100,>100,65,> 100,>100,56,> 100,TGI [7]: >100 µM; GI50 [8]: 62 µM; IC50 [8]: > 100 µM; TGI [8]: >100 µM
